The record followed here is patent publication US10442804B2, “Compounds for the treatment of hepatitis B virus infection” (Gilead Sciences, Inc., priority 2017, dated 2019).

The nature of one data set: MT-4 cytotoxicity assay. Conditions: human. It is filed as cell-based, human.
Data set [1] relates to HBV-infected NTCP-HepG2 cells, secreted HBsAg. Put plainly: microbe, parasite or virus in culture. Conditions: Hepatitis B virus, 120 h, secreted HBsAg in supernatant after 5 days; geometric mean of minimum four determinations; read-out: NTCP HBsAg EC50. The format is cell-based, hepatitis B virus (genotype D, AD38-derived). The essentials: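 NTCP-HepG2 cells were infected with genotype D HBV at 4000 genome equivalents/cell, then seeded 4 days post-infection with serially diluted compounds (1% DMSO) for 5 days. Supernatant HBsAg was measured by chemiluminescent MSD immunoassay. EC50 from four-parameter fit, geometric mean of ≥4 determinations.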

Setting [2] is: five days, Cell Titer Glo luminescence, read-out: MT-4 CC50.

Molecules are shown by their SMILES. Where two headings read alike, the source gives them in different places.

Consider `CC1(C)CC[C@@H]2c3cc(C#CC(C)(C)S(C)(=O)=O)c(OC(F)F)cc3-c3cc(=O)c(C(=O)O)cn3N21` [Compound 112, (R)-11-(difluoromethoxy)-3,3-dimethyl-12-(3-methyl-3-(methylsulfonyl)but-1-yn-1-yl)-8-oxo-2,3,8,13b-tetrahydro-1H-pyrido[2,1-a]pyrrolo[1,2-c]phthalazine-7-carboxylic acid], for which the CC50 at 5 days in the data set “MT-4 cytotoxicity assay” (setting [2]) was over 10000 nM. The EC50 in data set [1] was determined as 2.7 nM.
The matching figures for `COCCCOc1cc2c(cc1Cl)-c1cc(=O)c(C(=O)O)cn1N1[C@@H]2CCC12COC(C)(C)OC2` [Example 81, (R)-11-chloro-12-(3-methoxypropoxy)-2′,2′-dimethyl-8-oxo-1,2,8,13b-tetrahydrospiro[pyrido[2,1-a]pyrrolo[1,2-c]phthalazine-3,5′-[1,3]dioxane]-7-carboxylic acid]: over 10000 nM and 386 nM.
On the same counts, the results for `COc1cc2c(cc1OCC1COC1)[C@H]1CCC(C)(C)N1n1cc(C(=O)O)c(=O)cc1-2` [Example 16, (R)-11-methoxy-3,3-dimethyl-12-(oxetan-3-ylmethoxy)-8-oxo-2,3,8,13b-tetrahydro-1H-pyrido[2,1-a]pyrrolo[1,2-c]phthalazine-7-carboxylic acid] are over 10000 nM and 7.8 nM.
For the compound `COCCCOc1cc2c(cc1Cl)-c1cc(=O)c(C(=O)O)cn1N1[C@@H]2CCC1(COC)COC` [Example 80, (R)-11-chloro-3,3-bis(methoxymethyl)-12-(3-methoxypropoxy)-8-oxo-2,3,8,13b-tetrahydro-1H-pyrido[2,1-a]pyrrolo[1,2-c]phthalazine-7-carboxylic acid], the CC50 at 5 days in the data set “MT-4 cytotoxicity assay” (setting [2]) was over 10000 nM. The EC50 in data set [1] was found to be 45 nM.
Turning to `COCCCOc1cc2c(cc1Cl)-c1cc(=O)c(C(=O)O)cn1N1CCC(C)(C)[C@@H]21` (single isomer, unassigned) [Example 48], the CC50 at 5 days in the data set “MT-4 cytotoxicity assay” (setting [2]) was 2200 nM. In data set [1], the EC50 was over 1000 nM.
Regarding `COc1cc2c(cc1OCCCOC(C)(C)C)[C@H]1CCC(C)(C)N1n1cc(C(=O)O)c(=O)cc1-2` [Example 65, (R)-12-(3-(tert-butoxy)propoxy)-11-methoxy-3,3-dimethyl-8-oxo-2,3,8,13b-tetrahydro-1H-pyrido[2,1-a]pyrrolo[1,2-c]phthalazine-7-carboxylic acid], the CC50 at 5 days in the data set “MT-4 cytotoxicity assay” (setting [2]) was over 10000 nM. The EC50 in data set [1] stood at 0.41 nM.
For `COCCCOc1cc2c(cc1OC)-c1cc(=O)c(C(=O)O)cn1N1[C@H]2CCCC1(C)C` (single isomer, unassigned) [Example 53], the half-maximal cytotoxic concentration (CC50) at 5 days in the data set “MT-4 cytotoxicity assay” (setting [2]) came out at 9700 nM. The EC50 in data set [1] was found to be 9.1 nM.
In the case of `COCCCOc1cc2c(cc1Cl)-c1cc(=O)c(C(=O)O)cn1N1[C@H]2CCC12CC2` (single isomer, unassigned) [Example 57], in the data set “MT-4 cytotoxicity assay” (MT-4 CC50), the CC50 at 5 days was over 10000 nM. The EC50 in data set [1] is over 1000 nM.
Turning to `COCc1cc2c(cc1OCC13CC(C#N)(C1)C3)[C@H]1CCC(C)(C)N1n1cc(C(=O)O)c(=O)cc1-2` [Example 74, (R)-12-((3-cyanobicyclo[1.1.1]pentan-1-yl)methoxy)-11-(methoxymethyl)-3,3-dimethyl-8-oxo-2,3,8,13b-tetrahydro-1H-pyrido[2,1-a]pyrrolo[1,2-c]phthalazine-7-carboxylic acid], in the data set “MT-4 cytotoxicity assay” (setting [2]), the half-maximal cytotoxic concentration (CC50) at 5 days is over 10000 nM. Further, the EC50 in data set [1] stood at 3.8 nM.
The matching figures for `COCCCOc1cc2c(cc1Cl)-c1cc(=O)c(C(=O)O)cn1[C@@H]1[C@H]2CCC1(C)C` (single isomer, unassigned) [Example 34]: over 10000 nM and 220 nM.
On the same counts, the results for `COCCCOc1cc2c(cc1C1CC1)-c1cc(=O)c(C(=O)O)cn1N1[C@@H]2CCC1(C)C` [Example 28, (R)-11-cyclopropyl-12-(3-methoxypropoxy)-3,3-dimethyl-8-oxo-2,3,8,13b-tetrahydro-1H-pyrido[2,1-a]pyrrolo[1,2-c]phthalazine-7-carboxylic acid] are 8700 nM and 0.78 nM.
Take `CCc1cc2c(cc1OCCCOC)[C@H]1CCC(C)(C)N1n1cc(C(=O)O)c(=O)cc1-2` [Example 63, (R)-11-Ethyl-12-(3-methoxypropoxy)-3,3-dimethyl-8-oxo-2,3,8,13b-tetrahydro-1H-pyrido[2,1-a]pyrrolo[1,2-c]phthalazine-7-carboxylic acid]: the CC50 at 5 days in the data set “MT-4 cytotoxicity assay” (setting [2]) is over 10000 nM. In data set [1], the EC50 came to 0.34 nM.
The matching figures for `COCc1cc2c(cc1C#CC(C)(C)OC)[C@H]1CCC(C)(C)N1n1cc(C(=O)O)c(=O)cc1-2` [Example 97, (R)-12-(3-methoxy-3-methylbut-1-yn-1-yl)-11-(methoxymethyl)-3,3-dimethyl-8-oxo-2,3,8,13b-tetrahydro-1H-pyrido[2,1-a]pyrrolo[1,2-c]phthalazine-7-carboxylic acid]: over 10000 nM and 8.6 nM.
`COCc1cc2c(cc1C#CC(C)(C)O)[C@H]1CCC(C)(C)N1n1cc(C(=O)O)c(=O)cc1-2` [Example 70, (R)-12-(3-hydroxy-3-methylbut-1-yn-1-yl)-11-(methoxymethyl)-3,3-dimethyl-8-oxo-2,3,8,13b-tetrahydro-1H-pyrido[2,1-a]pyrrolo[1,2-c]phthalazine-7-carboxylic acid]: the CC50 at 5 days in “MT-4 cytotoxicity assay” (setting [2]) was over 10000 nM. Further, the EC50 in data set [1] was 21.1 nM.
On the same counts, the results for `COc1cc2c(cc1C#CC(C)(C)S(=O)(=O)C1CC1)[C@H]1CCC(C)(C)N1n1cc(C(=O)O)c(=O)cc1-2` [Example 84, (R)-12-(3-(cyclopropylsulfonyl)-3-methylbut-1-yn-1-yl)-11-methoxy-3,3-dimethyl-8-oxo-2,3,8,13b-tetrahydro-1H-pyrido[2,1-a]pyrrolo[1,2-c]phthalazine-7-carboxylic acid] are over 10000 nM and 11.2 nM.
In turn, `COCCCOc1cc2c(cc1Cl)-c1cc(=O)c(C(=O)O)cn1N1C2CCC12CC2` (stereo not shown) [Example 59, 11′-chloro-12′-(3-methoxypropoxy)-8′-oxo-1′,2′,8′,13b′-tetrahydrospiro[cyclopropane-1,3′-pyrido[2,1-a]pyrrolo[1,2-c]phthalazine]-7′-carboxylic acid] returned a CC50 at 5 days in “MT-4 cytotoxicity assay” (MT-4 CC50) of over 10000 nM. Besides, the half-maximal effective concentration (EC50) in data set [1] came out at 6 nM.
Turning to `CC1(C)CC[C@@H]2c3cc(C#CC(C)(C)S(C)(=O)=O)c(OC(F)(F)F)cc3-c3cc(=O)c(C(=O)O)cn3N21` [Example 89, (R)-3,3-dimethyl-12-(3-methyl-3-(methylsulfonyl)but-1-yn-1-yl)-8-oxo-11-(trifluoromethoxy)-2,3,8,13b-tetrahydro-1H-pyrido[2,1-a]pyrrolo[1,2-c]phthalazine-7-carboxylic acid], the CC50 at 5 days in “MT-4 cytotoxicity assay” (setting [2]) was over 10000 nM. In addition, the concentration for a half-maximal effect (EC50) in data set [1] was determined as 13.7 nM.
`COCCCOc1cc2c(cc1COC)-c1cc(=O)c(C(=O)O)cn1N1[C@@H]2CCC12CC2` [Example 87, (R)-11′-(methoxymethyl)-12′-(3-methoxypropoxy)-8′-oxo-1′,2′,8′,13b′-tetrahydrospiro[cyclopropane-1,3′-pyrido[2,1-a]pyrrolo[1,2-c]phthalazine]-7′-carboxylic acid] showed a CC50 at 5 days in “MT-4 cytotoxicity assay” (MT-4 CC50) of over 10000 nM. Also, the EC50 in data set [1] turned out to be 4.2 nM.
Regarding `COC(C)(C)C#Cc1cc2c(cc1OC(F)F)-c1cc(=O)c(C(=O)O)cn1N1[C@@H]2CCC1(C)C` [Example 103, (R)-11-(difluoromethoxy)-12-(3-methoxy-3-methylbut-1-yn-1-yl)-3,3-dimethyl-8-oxo-2,3,8,13b-tetrahydro-1H-pyrido[2,1-a]pyrrolo[1,2-c]phthalazine-7-carboxylic acid], the CC50 at 5 days in the data set “MT-4 cytotoxicity assay” (setting [2]) was over 10000 nM. Further, the EC50 in data set [1] amounted to 0.82 nM.
On to `COCCCOc1cc2c(cc1Cl)-c1cc(=O)c(C(=O)O)cn1N1C2CCC1(C)C` (stereo not shown) [Example 4, 11-chloro-12-(3-methoxypropoxy)-3,3-dimethyl-8-oxo-2,3,8,13b-tetrahydro-1H-pyrido[2,1-a]pyrrolo[1,2-c]phthalazine-7-carboxylic acid], for which, in “MT-4 cytotoxicity assay” (setting [2]), the CC50 at 5 days is over 10000 nM. Further, the EC50 in data set [1] was found to be 3.9 nM.
In the case of `COCCCOc1cc2c(cc1Cl)-c1cc(=O)c(C(=O)O)cn1N1CCC[C@H]21` (single isomer, unassigned) [Example 2], the CC50 at 5 days in the data set “MT-4 cytotoxicity assay” (setting [2]) turned out to be 3900 nM. In addition, the EC50 in data set [1] was found to be 110 nM.
Consider `COCCCOc1cc2c(cc1Cl)-c1cc(=O)c(C(=O)O)cn1N1CC(C)(C)C[C@H]21` (single isomer, unassigned) [Example 29], for which the half-maximal cytotoxic concentration (CC50) at 5 days in the data set “MT-4 cytotoxicity assay” (setting [2]) was over 10000 nM. Moreover, in data set [1], the EC50 amounted to 14 nM.
`COCCCOc1cc2c(cc1OC(C)(C)C)-c1cc(=O)c(C(=O)O)cn1N1[C@@H]2CCC1(C)C` [Example 25, (R)-11-(tert-butoxy)-12-(3-methoxypropoxy)-3,3-dimethyl-8-oxo-2,3,8,13b-tetrahydro-1H-pyrido[2,1-a]pyrrolo[1,2-c]phthalazine-7-carboxylic acid]: the CC50 at 5 days in “MT-4 cytotoxicity assay” (setting [2]) is over 10000 nM. For the same compound, the EC50 in data set [1] is 160 nM.
Take `COCCCOc1cc2c(cc1Cl)-c1cc(=O)c(C(=O)O)cn1N1[C@@H]2CCC12CC2` (single isomer, unassigned) [Example 56]: in the data set “MT-4 cytotoxicity assay” (MT-4 CC50), the CC50 at 5 days was over 10000 nM. For the same compound, the EC50 in data set [1] stood at 1.5 nM.
For the compound `COCCCOc1cc2c(cc1Cl)-c1cc(=O)c(C(=O)O)cn1N1[C@H](C)CC[C@@H]21` (single isomer, unassigned) [Example 9], the CC50 at 5 days in “MT-4 cytotoxicity assay” (setting [2]) is over 10000 nM. Besides, in data set [1], the EC50 worked out at 45 nM.
In turn, `COC(C)(C)C#Cc1cc2c(cc1Cl)-c1cc(=O)c(C(=O)O)cn1N1[C@@H]2CCC12CC2` [Example 85, (R)-11′-chloro-12′-(3-methoxy-3-methylbut-1-yn-1-yl)-8′-oxo-1′,2′,8′,13b′-tetrahydrospiro[cyclopropane-1,3′-pyrido[2,1-a]pyrrolo[1,2-c]phthalazine]-7′-carboxylic acid] gave a CC50 at 5 days in the data set “MT-4 cytotoxicity assay” (MT-4 CC50) of over 10000 nM. In data set [1], the EC50 amounted to 4.1 nM.
